Results on 6 compounds are retold here after patent US4606911A, “Pharmaceutical composition for the prevention of dental caries” (Rohto Pharmaceutical Co. Ltd., priority 1984, dated 1986).

The test system of assay [1] is Streptococcus mutans OMZ 176. Briefly: Antibacterial activity (MIC, growth in BHI medium). Conditions: text statement. It counts as cell-based. On the procedure:
To a test tube was charged 3.8 ml of Brain Heart Infusion (BHI) medium, and 100 μl of a sample solution containing oleanolic, ursolic or glycyrrhetic acid and 100 μl of pre-incubated culture of bacterium selected from those listed below were added thereto. The mixture was incubated at 37° C. and then allowed to stand over night. The extent of the growth of bacterium was observed after two or five days.
Streptococcus mutans OMZ 176

The subject of assay [2] is S. mutans OMZ 176 (serotype d). The assay can be described thus: microbe, parasite or virus in culture. It counts as cell-based. Conditions: for inhibition at 10 µg/mL / inhibition at 20 µg/mL / inhibition at 30 µg/mL / inhibition at 50 µg/mL / inhibition at 100 µg/mL: Streptococcus mutans, read-out: Adherence-inhibiting activity (AIP); for adherence-inhibiting activity (in words): text statement. On the procedure:
The adherence-inhibiting activity of the triterpenes of the formula (I) was measured using an inner wall of a test tube in place of the surface of a tooth.
To 2.9 ml of BHI medium containing 5% sucrose in a test tube (i) are added 30 μl of a sample solution prepared by dissolving a compound of: the formula (I) in H2 O or dimethylsulfoxide (DMSO) and 100 μl of culture medium containing S. mutans OMZ 176 (serotype d) which was preincuvated at 37° C. for 24 hours in BHI medium, and the mixture is incubated at 37° C. for 20 hours, with the test tube being maintained at a slant of 30°. The test tube is revolved gently two or three times and the supernatant is transferred to another test tube (ii). To the first test tube (i) is added 3 ml of 50 mM phosphate buffer (pH 7.5), and the test tube is gently revolved two or three times. The resultant supernatant is transferred to the third test tube (iii). The test tubes (ii) and (iii) are each centrifuged and respective supernatants are discarded. To each of the test tubes (i), (ii) and (iii) is added 3 ml of 0.5M NaOH, and the test tubes are shaken to suspend bacterial cells. Absorbance of the resulting suspension is measured at 660 nm. The absorbances obtained with respect to the test tube (i), (ii) and (iii) are represented by Ab(i), Ab(ii) and Ab(iii), respectively. Ab(i) reflects the amount of the bacterial cells adhered to the wall of the test tube and Ab(ii) and Ab(iii) correspond to the amount of the bacterial cells not adhered to the wall.
The same procedure is repeated using 30 μl of distilled water or DMSO in place of the sample solution to obtain a control. The absorbance of the control is represented by Ab(Cont.).
Adherence percentage of bacteria is calculated from the following equation. [formula]
Adherence inhibitory percentage (AIP) is calculated using the adherence percentage according to the following equation. [formula]
The magnitude of adherence-inhibiting activity of each of the samples is shown, in Table 3, by the use of the following symbols: […]

Take `CC1(C)[C@@H](O[C@H]2O[C@H](C(=O)O)[C@@H](O)[C@H](O)[C@H]2O[C@@H]2O[C@H](C(=O)O)[C@@H](O)[C@H](O)[C@H]2O)CC[C@]2(C)[C@H]3C(=O)C=C4[C@@H]5C[C@@](C)(C(=O)O)CC[C@]5(C)CC[C@@]4(C)[C@]3(C)CC[C@@H]12` [Glycyrrizic acid, reference compound]: in assay [1], the “antibacterial activity to S. mutans (in words)” value (“antibacterial activity” for short) is “could not be observed”. Also, in assay [2], the inhibition at 10 µg/mL is < 25%, the inhibition at 20 µg/mL is < 25%, the inhibition at 30 µg/mL is < 25% and the inhibition at 50 µg/mL was < 25%. Moreover, in assay [2], the inhibition at 100 µg/mL is < 25% and the “adherence-inhibiting activity (in words)” value was “could not be observed”.
On to `COC(=O)[C@]12CCC(C)(C)C[C@H]1C1=CC[C@@H]3[C@@]4(C)CC[C@H](O)C(C)(C)[C@@H]4CC[C@@]3(C)[C@]1(C)CC2` [Methyl oleanolate (17-position) (a), Methyl oleanolate, reference compound], for which, in assay [2], the inhibition at 10 µg/mL was < 25%, the inhibition at 20 µg/mL is < 25%, the inhibition at 30 µg/mL was < 25% and the inhibition at 50 µg/mL was < 25%. For the same compound, the inhibition at 100 µg/mL in assay [2] was < 25%.
Take `CC1(C)CC[C@]2(CO)CC[C@]3(C)C(=CC[C@@H]4[C@@]5(C)CC[C@H](O)C(C)(C)[C@@H]5CC[C@]43C)[C@@H]2C1` [Oleanolic acid (acid reductant) (b), reference compound]: in assay [2], the inhibition at 10 µg/mL was < 25%, the inhibition at 20 µg/mL was < 25%, the inhibition at 30 µg/mL is < 25% and the inhibition at 50 µg/mL was < 25%. The inhibition at 100 µg/mL in assay [2] was < 25%.
Take `CC1(C)CC[C@]2(C)CC=C3[C@]4(C)CC[C@H]5C(C)(C)[C@@H](O)CC[C@]5(C)[C@H]4CC[C@@]3(C)[C@@H]2C1` [Taraxerol, reference compound]: the “antibacterial activity” value in assay [1] is reported as “could not be observed”. Besides, in assay [2], the inhibition at 10 µg/mL was < 25%, the inhibition at 20 µg/mL is < 25%, the inhibition at 30 µg/mL was < 25% and the inhibition at 50 µg/mL is < 25%. For the same compound, in assay [2], the inhibition at 100 µg/mL is < 25% and the “adherence-inhibiting activity (in words)” value is given as “could not be observed”.
Regarding `CC(=O)O[C@H]1CC[C@]2(C)[C@H]3CC=C4[C@@H]5CC(C)(C)CC[C@]5(C(=O)O)CC[C@@]4(C)[C@]3(C)CC[C@H]2C1(C)C` [reference compound], in assay [2], the inhibition at 10 µg/mL was < 25%, the inhibition at 20 µg/mL was < 25%, the inhibition at 30 µg/mL was < 25% and the inhibition at 50 µg/mL lay in the range of 25 to 50%. In assay [2], the inhibition at 100 µg/mL fell in the range of 25 to 50%.
As to “Chikusetsusaponin V [Chikusetsusaponin V (e), reference compound]”, the “antibacterial activity” value in assay [1] is on record as “could not be observed”. Moreover, the “adherence-inhibiting activity (in words)” value in assay [2] was “could not be observed”.
